Values of other authors, collected in US20190038640A1, “COMPOSITION, FORMULATIONS AND METHODS OF MAKING AND USING BOTANICALS AND NATURAL COMPOUNDS FOR THE PROMOTION OF HEALTHY BRAIN AGING” (THE BRAIN HEALTH PROJECT, LLC, priority 2013, published 2019).

Experiments:
endometrium = settings: genistein aglycone 54 mg
[1] = 0.1-0.2 mg HupA twice daily, active group
[2] = in vivo
beta amyloid = settings: AD transgenic mice
[3] = system: alkaline phosphatase activity in the endometrium

O=c1c(-c2ccc(O)cc2)coc2cc(O)cc(O)c12 [Genistein, genistein]
reduction of endometrial hyperplasia without atypia compared with norethisterone acetate (endometrium): as successful as

C/C=C1\[C@H]2C=C(C)C[C@]1(N)c1ccc(=O)[nH]c1C2 [Huperzine A]
proportion of patients with a four point improvement on the ADAS-Cog [1]: 56%
terminal half life (0.2 mg pure Huperzine A orally, healthy subjects): approximately 6 hours
optimal plasma level (human, in vivo): 0.6 ng/mL

Cn1c(=O)c2c(ncn2C)n(C)c1=O [caffeine]
half life [2]: 4 to 6 h
time to peak blood levels [2]: within one hour
reduction of beta amyloid deposition in the entorhinal cortex (beta amyloid): 46%
reduction of beta amyloid deposition in the hippocampus (beta amyloid): 40%

O=c1c(-c2ccc(O)cc2)coc2cc(O)ccc12 [daidzein]
potency of inducing alkaline phosphatase activity relative to estradiol [3]: one millionth
